Test results published in US4308267A, “7-[2-Alkoxyimino-2-(amino-thiazole)acetami do]-3-[1-(sulfaminoalkly)tetrazolthiomethyl]cephalosporins” (SmithKline Corporation, priority 1980, dated 1981).
Values after ≈ are worked out from the molar mass of the structure shown. Counter-ions that a name gives are not always drawn.

Experiments:
Pseudo. aeruginosa 647 = assay: minimum inhibitory concentration, in vitro screen (Table I, strain 16); assay type: cell-based; settings: Pseudomonas aeruginosa
Description: (§1) The compounds of this invention are useful as broad spectrum antibacterial agents against both Gram-positive and Gram-negative organisms. […] Data for 7-[syn-2-methoxyimino-2-(2-amino-4-thiazolyl)acetamido]cephalosporanic acid (cefatoxime) are also included for comparison.

Proteus morgani 179 = assay: minimum inhibitory concentration, in vitro screen (Table I, strain 13); assay type: cell-based
Description: as §1

Kleb. pneumoniae 982 = assay: minimum inhibitory concentration, in vitro screen (Table I, strain 9); assay type: cell-based; settings: Klebsiella pneumoniae; Kleb. pneumoniae 982, lactamase producer
Description: as §1

P. mirabilis PM-444 = assay: minimum inhibitory concentration, in vitro screen (Table I, strain 10); assay type: cell-based; settings: Proteus mirabilis, PM444
Description: as §1

[1] = system: Enterobacter aerogenes ATCC 13048; assay: minimum inhibitory concentration, in vitro screen (Table I, strain 14); assay type: cell-based; settings: Klebsiella aerogenes, ATCC13048
Description: as §1

E. coli SK&F 12140 = assay: minimum inhibitory concentration, in vitro screen (Table I, strain 5); assay type: cell-based; settings: Escherichia coli
Description: as §1

Enterobacter cloacae 921 = assay: minimum inhibitory concentration, in vitro screen (Table I, strain 15); assay type: cell-based
Description: as §1

[2] = system: Serratia marcescens ATCC 13880; assay: minimum inhibitory concentration, in vitro screen (Table I, strain 12); assay type: cell-based; settings: ATCC13880
Description: as §1

[3] = system: Kleb. pneumoniae SK&F 4200; assay: minimum inhibitory concentration, in vitro screen (Table I, strain 7); assay type: cell-based; settings: Klebsiella pneumoniae
Description: as §1

Strep. faecalis HH 34358 = assay: minimum inhibitory concentration, in vitro screen (Table I, strain 4); assay type: cell-based; settings: Enterococcus faecalis, HH34358
Description: as §1

in vitro = in vitro ADME; settings: human serum proteins; read-out: Binding to Human Serum Proteins (converted)
S. aureus HH 127 = assay: standard in vivo antibacterial test in mice, ED50 (Table 2); settings: Staphylococcus aureus
Description: (§2) Table 2 sets forth ED50 's for Compound A, cefamandole and cefatoxime.

E. coli 12140 = assay: as above; settings: Escherichia coli
Description: as §2

Staph. aureus 674 = assay: minimum inhibitory concentration, in vitro screen (Table I, strain 3); assay type: cell-based; settings: Staphylococcus aureus
Description: as §1

Pseudo. aeruginosa HH 63 = assay: minimum inhibitory concentration, in vitro screen (Table I, strain 11); assay type: cell-based; settings: Pseudomonas aeruginosa, HH63
Description: as §1

Staph. aureus HH 127 = assay: minimum inhibitory concentration, in vitro screen (Table I, strain 1); assay type: cell-based; settings: Staphylococcus aureus, HH127; Staph. aureus HH 127, lactamase producer
Description: as §1

E. coli 804 = assay: minimum inhibitory concentration, in vitro screen (Table I, strain 6); assay type: cell-based; settings: Escherichia coli; E. coli 804, lactamase producer
Description: as §1

[4] = system: Kleb. pneumoniae SK&F 1200; assay: minimum inhibitory concentration, in vitro screen (Table I, strain 8); assay type: cell-based; settings: Klebsiella pneumoniae
Description: as §1

[5] = pharmacokinetics in mouse (Table 3); assay type: in vivo; settings: for half-life: in vivo; for half-life / concentration at 2 h / Cmax / dose excreted: mouse, 20 mg/kg; for concentration at 2 h / Cmax: serum; for concentration at 2 h: read-out: Serum Level at 2 hrs.; for Cmax: read-out: Peak Serum Level; for dose excreted: urine, read-out: Urinary Recovery
Staph. aureus 671 = assay: minimum inhibitory concentration, in vitro screen (Table I, strain 2); assay type: cell-based; settings: Staphylococcus aureus; Staph. aureus 671, lactamase producer
Description: as §1

bacterial infections = assay: standard in vivo tests in mice (general statement)
Description: as §2

[6] = system: Gram-negative bacteria including those which are β-lactamase producers; assay: standard in vitro screens (general statement); assay type: cell-based; settings: especially against Gram-negative bacteria including β-lactamase producers
Description: as §1

| SMILES | MIC (Pseudo. aeruginosa 647) [µg/mL] | MIC (Proteus morgani 179) [µg/mL] | MIC (Kleb. pneumoniae 982) [µg/mL] | MIC (P. mirabilis PM-444) [µg/mL] | MIC [1] [µg/mL] | MIC (E. coli SK&F 12140) [µg/mL] | MIC (Enterobacter cloacae 921) [µg/mL] | MIC [2] [µg/mL] | MIC [3] [µg/mL] | MIC (Strep. faecalis HH 34358) [µg/mL] | fraction unbound (in vitro) | MIC (Staph. aureus 674) [µg/mL] | MIC (Pseudo. aeruginosa HH 63) [µg/mL] | MIC (Staph. aureus HH 127) [µg/mL] | MIC (E. coli 804) [µg/mL] | MIC [4] [µg/mL] | half-life [5] [min] | concentration at 2 h [5] [ng/mL] | Cmax [5] [ng/mL] | dose excreted [5] [%] | further results |
| --- | --- | --- | --- | --- | --- | --- | --- | --- | --- | --- | --- | --- | --- | --- | --- | --- | --- | --- | --- | --- | --- |
| CO/N=C(\C(=O)N[C@@H]1C(=O)N2C(C(=O)O)=C(COC(C)=O)CS[C@H]12)c1csc(N)n1 [Cefatoxime, 7-[syn-2-methoxyimino-2-(2-amino-4-thiazolyl)acetamido]cephalosporanic acid] | 3.1 (≈ 6.81 µM) | ≤ 0.1 | 0.2 (≈ 0.439 µM) | ≤ 0.1 | ≤ 0.1 | ≤ 0.1 | ≤ 0.1 | ≤ 0.1 | ≤ 0.1 | > 100 | 0.61 | 0.8 (≈ 1.76 µM) | 6.3 (≈ 13.8 µM) | 1.6 (≈ 3.51 µM) | 0.2 (≈ 0.439 µM) | ≤ 0.1 | 27 | < 1000 | 25000 | 13 | ED50 (S. aureus HH 127; HH127): 10.5 mg/kg; ED50 (E. coli 12140): < 0.2 mg/kg; MIC (Staph. aureus 671): 0.4 µg/mL (≈ 0.878 µM) |
| CO/N=C(\C(=O)N[C@@H]1C(=O)N2C(C(=O)O)=C(CSc3nnnn3CCNS(=O)(=O)O)CS[C@H]12)c1csc(N)n1 [Compound A, 7-[syn-2-methoxyimino-2-(2-amino-4-thiazolyl)acetamido]-3-[1-(2-sulfaminoethyl)tetrazo-5-ylthiomethyl]-3-cephem-4-carboxylic acid disodium salt] | 6.3 | ≤ 0.1 | 1.6 | ≤ 0.1 | 0.2 | ≤ 0.1 | 0.2 | ≤ 0.1 | ≤ 0.1 | > 100 | 0.3 | 6.3 | 12.5 | 6.3 | 0.4 | ≤ 0.1 | 114 | 52000 | 78000 | 24 | ED50 (S. aureus HH 127; HH127): 21 mg/kg; ED50 (E. coli 12140): 0.4 mg/kg; antibacterial activity in standard in vivo tests (bacterial infections): high antibacterial activity; peak serum levels, serum levels at two hours and half-life ([5]; compared to cefatoxime and cefamandole): better for Compound A compared to cefatoxime and cefamandole; pharmacokinetic properties ([5]; general statement): unexpected improved pharmacokinetic properties; activity in standard in vitro screens [6]: high activity; MIC (Staph. aureus 671): 3.1 µg/mL |
| Cn1nnnc1SCC1=C(C(=O)O)N2C(=O)[C@@H](NC(=O)[C@H](O)c3ccccc3)[C@H]2SC1 [Cefamandole] | > 100 | 1.6 (≈ 3.46 µM) | > 100 | 0.4 (≈ 0.865 µM) | 1.6 (≈ 3.46 µM) | 0.8 (≈ 1.73 µM) | 3.1 (≈ 6.7 µM) | 12.5 (≈ 27 µM) | 1.6 (≈ 3.46 µM) | 25 (≈ 54.1 µM) | 0.39 | ≤ 0.1 | > 100 | 1.6 (≈ 3.46 µM) | > 100 | 0.4 (≈ 0.865 µM) | 12 | 1000 | 34000 | 45 | ED50 (S. aureus HH 127; HH127, * representative value): 2.2 mg/kg; ED50 (E. coli 12140; * representative value): 0.9 mg/kg; MIC (Staph. aureus 671): 6.3 µg/mL (≈ 13.6 µM) |
